Data as given in article PMC9572541, “Design, Synthesis and Biological Evaluation of Novel and Potent Protein Arginine Methyltransferases 5 Inhibitors for Cancer Therapy” (Molecules, 2022).

How the values were obtained:
[1] = test system: MV-4-11 cells; test: Anti-proliferation CellTiter-Glo assay, MV-4-11; assay type: cell-based; details: Homo sapiens, MV4-11, 12th day
From the text: (§1) MV-4-11 and MDA-MB-468 cell lines were used to evaluate the anti-proliferative activities of the selected target compounds (CellTiter-Glo assay), and AML-12 hepatocytes were selected to evaluate the toxicity of the compounds.
(§2) MV-4-11 and MDA-MB-468 cell line were derived from Cell Resources Center of Shanghai Academy of life sciences (Shanghai, China). AML-12 cell line was brough from Nanjing Lixing Biotechnology Co. Ltd. (Nanjing, China). MDA-MB-468 cell line was maintained in Dulbecco’s Modified Eagle Medium (DMEM, KeyGEN Bio) that contained 10% FBS (Biochanel, China), MV-4-11 cell line was maintained in Iscove’s Modified Dulbecco Medium containing; 10% FBS (Biochannel, China), AML-12 cell line was maintained in DMEM/F-12 (1:1) (KeyGEN, China; 1% ITS Liquid Media Supplement (Sigma, America), dexamethasone 40 ng/mL (Sigma, USA) and 10% FBS (Biochannel, China). All cells were grown in a humidified incubator containing 5% carbon dioxide at 37 ℃. All compounds were dispersed in dimethyl sulfoxide (Sigma), the concentration of the reserve solution was 10 mmol/L and the solution was stored in a refrigerator at −20 ℃. SDMA (# 13222S), β- Tubulin (#2146S) and horseradish peroxidase (HRP)-linked secondary antibodies anti-rabbit or anti-mouse IgG were purchased from Cell Signaling Technology (CST), and the anti-PRMT5 (ab109451) antibody was purchased from ABCAM.
(§3) The antiproliferative activities of compounds in vitro were measured by CellTiter-Glo (CTG) assay (Promega, America). In linear/log-phase growth, cultured MV-4-11 cells were split to with seeding density of 2 × 10^5 cells/mL in 1–20 mL of media, depending on the yield required at the end of the growth period. At the conclusion of each treatment period, cells were harvested by centrifugation (4 min, 1000 rpm), and cell pellets were rinsed twice with PBS before being research further processing. Afterwards, cells were plated in 96-well plates with a density of 500 cells/well in […] media. After six hours incubation, compounds treatment was performed. Half of the culture medium was moved and re-plated with fresh media with fresh compound after 6 days. On the 12th day, Cell Titer-Glo Luminescent Cell Viability assays (Promega, USA) were used to determine the viable cell number, and luminescence was recorded using the Envision Multilabel Plate Readers (PerkinElmer). The concentration dependence curves were determined at each time point using GraphPad Prism 8.0 software.

[2] = test system: AML-12 hepatocytes; test: Toxicity on normal AML-12 hepatocytes; assay type: cell-based; details: Mus musculus, AML12; for inhibition at 10 µM: read-out: AML-12 Inhibition Rate% @10 μM; for inhibition at 20 µM: read-out: AML-12 Inhibition Rate% @20 μM
From the text: as §1
as §2, with “ABCAM. […]” for “ABCAM.”

[3] = test system: MDA-MB-468 cells; test: Anti-proliferation CellTiter-Glo assay, MDA-MB-468; assay type: cell-based; details: Homo sapiens
From the text: as §1, §2, §3

[4] = molecular target: T1, PRMT5 (Homo sapiens, UniProt O14744); test: PRMT5 enzymatic activity inhibition assay (radioactive methylation, 3H-SAM to H4R3 peptide); assay type: biochemical; details: for inhibition at 0.1 µM: 100 nM compound, read-out: Inhibition Rate% @100 nM
T1 construct: The final concentrations of PRMT5 enzyme: 2.5 nm/L
Description: The PRMT5 enzymatic activity assay was conducted by Chempartner Life science. The final concentrations of PRMT5 enzyme: 2.5 nm/L; ^3H-SAM: 0.3 μM/L; histone peptide (H4R3S1ac): 0.3 μM/L. The protocol of radioactive methylation assay was as follows: (1) Prepare 1× assay buffer (modified Tris Buffer). (2) Transfer compounds to assay plate using Echo in 100% DMSO. DMSO’s final fraction is 1%. (3) Prepare enzyme and ^3H-SAM Mix solution in 1× assay buffer. (4) Prepare substrate (peptide sequence Ac-[…]-K(Biotin)) solution in 1× assay buffer. (5) Transfer 15 μL of enzyme and ^3H-SAM solution to assay plate. (6) Incubate at room temperature for 60 min. (7) Add 10 μL of substrate solution to each well to start the reaction, and for low control transfer 10 μL of 1× assay buffer. (8) Incubate at room temperature for 120 min. (9) Add cold SAM in 1× assay buffer to make the stop mix. (10) Stop reaction with addition of 5 µL per well of stop solution. (11) Transfer 25 µL of volume per well to Flash plate from assay plate. (12) Incubate for 1 h minimum at room temperature.
(13) Read plate on Micro beta. (14) Data process—get the data in Excel to obtain inhibition values using Equation (1).Inhibitory rate% = (Max-Signal)/ (Max-Min) × 100(1)
Fit the data in XL-Fit to obtain IC50 values using Equation (2): Y = Bottom + (Top-Bottom)/(1 + (IC50/X) […]) Y is% inhibition and X is compound concentration(2)

[5] = test system: MV-4-11 xenograft; test: MV-4-11 xenograft mouse model; assay type: in vivo, BALB/c nude mice; details: 10 mg/kg, twice daily (BID), 28 days
Description: Based on the excellent enzymatic and anti-proliferative activities of compound 20 in vitro, we then evaluated antitumor activities in vivo in an MV-4-11 xenograft mouse model.
Male BALB/c nude mice (6–8 weeks old) were purchased from Hangzhou Medical College. All animals were housed in a specific pathogen-free facility. MV-4-11 cells (5 × 10^6) suspended in 0.2 mL of PBS were inoculated subcutaneously on the right flank of each BALB/c nude mouse. Mice were divided randomly (5 mice for each group) into two treatment groups and a control group when the size of the tumors reached 150 mm^3. […] The tumor volume and body weight were measured every 2 days. The tumor volume was determined with Vernier calipers and calculated as follows: tumor volume = a × b^2/2, where a and b stand for the longest and shortest diameters measured by the vernier caliper, respectively. All animal experiments have been approved by Pharmaceutical Experiment Center of China Pharmaceutical University.
(A) The resulting tumors excised from the animals after treatment. […] (C) The nude mouse body weight was measured every 2 days. (D) The tumor volumes of the nude mice were measured and calculated once every 2 days.

[6] = no reference given; cited from earlier work

T1 sequence (O14744 whole entry): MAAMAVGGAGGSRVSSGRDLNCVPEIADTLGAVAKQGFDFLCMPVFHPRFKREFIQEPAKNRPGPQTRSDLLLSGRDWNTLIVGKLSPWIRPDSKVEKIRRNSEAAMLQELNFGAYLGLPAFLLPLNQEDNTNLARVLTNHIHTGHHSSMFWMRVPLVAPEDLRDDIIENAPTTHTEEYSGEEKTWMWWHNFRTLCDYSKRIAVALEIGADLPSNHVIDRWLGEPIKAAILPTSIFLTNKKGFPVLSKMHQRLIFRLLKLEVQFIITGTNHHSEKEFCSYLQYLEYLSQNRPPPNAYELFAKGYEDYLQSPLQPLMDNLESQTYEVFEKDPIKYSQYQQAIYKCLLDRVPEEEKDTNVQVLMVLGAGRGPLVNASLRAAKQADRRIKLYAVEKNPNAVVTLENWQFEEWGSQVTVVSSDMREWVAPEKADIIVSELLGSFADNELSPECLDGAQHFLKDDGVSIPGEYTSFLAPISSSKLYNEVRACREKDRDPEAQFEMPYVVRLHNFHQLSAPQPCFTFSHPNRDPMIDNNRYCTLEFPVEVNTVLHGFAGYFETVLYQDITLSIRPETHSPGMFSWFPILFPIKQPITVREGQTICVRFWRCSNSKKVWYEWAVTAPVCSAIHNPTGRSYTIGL
T1 sequence (Q9BQA1 whole entry partner): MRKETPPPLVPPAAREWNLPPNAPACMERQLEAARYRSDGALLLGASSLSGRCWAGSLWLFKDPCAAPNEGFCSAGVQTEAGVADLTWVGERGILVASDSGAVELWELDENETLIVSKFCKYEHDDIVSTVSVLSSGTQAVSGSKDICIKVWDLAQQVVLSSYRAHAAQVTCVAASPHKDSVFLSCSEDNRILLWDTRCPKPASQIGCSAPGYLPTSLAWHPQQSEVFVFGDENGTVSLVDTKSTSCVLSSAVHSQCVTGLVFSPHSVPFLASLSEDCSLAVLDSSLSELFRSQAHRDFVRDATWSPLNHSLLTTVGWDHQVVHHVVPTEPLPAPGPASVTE

Compound | GI50 [1] [nM] | GI50 [3] [nM] | IC50 [4] [nM] | inhibition at 0.1 µM [4] [%] | inhibition at 10 µM [2] [%] | inhibition at 20 µM [2] [%] | TGI [5] [%] | adverse events in clinical studies [6]
O=C(NC[C@H](O)CN1CCc2ccccc2C1)c1ccc2[nH]c3ccccc3c2c1 [Compound 1, (S)-N-(3-(3,4-dihydroisoquinolin-2(1H)-yl)-2-hydroxypropyl)-9H-carbazole-3-carboxamide] | 271 ± 152 | 552 ± 33 | 13 ± 8.9 | 73 ± 0.7 | 16.7 ± 10.4 | 97.5 ± 0.1 | – | –
O=C(NC[C@H](O)CN1CCc2ccccc2C1)c1ccc2[nH]c3c(c2c1)CCCC3 [Compound 7, (S)-N-(3-(3,4-dihydroisoquinolin-2(1H)-yl)-2-hydroxypropyl)-2,3,4,9-tetrahydro-1H-carbazole-6-carboxamide] | 54.1 ± 20.5 | > 250 | 18.6 ± 0.9 | 75 ± 0.7 | 46.4 ± 3.7 | 98.4 ± 0.7 | – | –
O=C(NC[C@H](O)CN1CCc2ccccc2C1)c1ccc2[nH]c3c(c2c1)CCCCCC3 [Compound 10, (S)-N-(3-(3,4-dihydroisoquinolin-2(1H)-yl)-2-hydroxypropyl)-6,7,8,9,10,11-hexahydro-5H-cycloocta[b]indole-2-carboxamide] | 42.4 ± 2.6 | 126 ± 70.9 | – | 71 ± 1.3 | 97.9 ± 1.2 | 100.7 ± 0.1 | – | –
Cn1c2c(c3cc(C(=O)NC[C@H](O)CN4CCc5ccccc5C4)ccc31)CCCC2 [Compound 13, (S)-N-(3-(3,4-dihydroisoquinolin-2(1H)-yl)-2-hydroxypropyl)-9-methyl-2,3,4,9-tetrahydro-1H-carbazole-6-carboxamide] | 163.1 ± 0.3 | 147 ± 2.5 | 10 ± 4.4 | 75 ± 0.7 | 16.3 ± 3.4 | 21.2 ± 2 | – | –
CCn1c2c(c3cc(C(=O)NC[C@H](O)CN4CCc5ccccc5C4)ccc31)CCCC2 [Compound 14, (S)-N-(3-(3,4-dihydroisoquinolin-2(1H)-yl)-2-hydroxypropyl)-9-ethyl-2,3,4,9-tetrahydro-1H-carbazole-6-carboxamide] | 29.7 ± 12.8 | 286 ± 5.9 | 8.8 ± 0.4 | 81 ± 3.2 | -67 ± 11.3 | 17.7 ± 3.5 | – | –
CCCn1c2c(c3cc(C(=O)NC[C@H](O)CN4CCc5ccccc5C4)ccc31)CCCC2 [Compound 15] | 39.5 ± 1.9 | 24.9 ± 20.2 | 4.2 ± 2.1 | 79 ± 4 | -21.5 ± 2 | 77.3 ± 1.6 | – | –
CC(=O)N1CCC(Nc2cc(C(=O)NC[C@H](O)CN3CCc4ccccc4C3)ncn2)CC1 [GSK-3326595, reference compound] | 9.3 ± 2.8 | 37.3 ± 3 | – | – | 22.9 ± 3 | 26.5 ± 2 | 39.3 | grade 3 or 4 adverse events

The next lines start with results.

GI50 [1] [nM] | GI50 [3] [nM] | IC50 [4] [nM] | inhibition at 0.1 µM [4] [%] | Compound | inhibition at 10 µM [2] [%] | inhibition at 20 µM [2] [%] | TGI [5] [%] | adverse events in clinical studies [6]
16 ± 2.3 | 99.1 ± 8.3 | 7.5 ± 0.3 | 80 ± 1 | O=C(NC[C@H](O)CN1CCc2ccccc2C1)c1ccc2c(c1)c1c(n2CC2CCC2)CCCC1 [Compound 19, (S)-9-(cyclobutylmethyl)-N-(3-(3,4-dihydroisoquinolin-2(1H)-yl)-2-hydroxypropyl)-2,3,4,9-tetrahydro-1H-carbazole-6-carboxamide] | 32.9 ± 5.4 | 100.2 ± 0.9 | – | –
– | – | – | 64 ± 10.7 | CCN1CCc2[nH]c3ccc(C(=O)NC[C@H](O)CN4CCc5ccccc5C4)cc3c2C1 [Compound 22, (S)-N-(3-(3,4-dihydroisoquinolin-2(1H)-yl)-2-hydroxypropyl)-2-ethyl-2,3,4,5-tetrahydro-1H-pyrido[4,3-b]indole-8-carboxamide] | – | – | – | –
– | – | – | 52 ± 4.8 | O=C(NC[C@H](O)CN1CCc2ccccc2C1)c1ccc2[nH]c3c(c2c1)CN(C1CC1)CC3 [Compound 23, (S)-2-cyclopropyl-N-(3-(3,4-dihydroisoquinolin-2(1H)-yl)-2-hydroxypropyl)-2,3,4,5-tetrahydro-1H-pyrido[4,3-b]indole-8-carboxamide] | – | – | – | –
– | – | – | 63 ± 4.4 | CCCN1CCc2[nH]c3ccc(C(=O)NC[C@H](O)CN4CCc5ccccc5C4)cc3c2C1 [Compound 24, (S)-N-(3-(3,4-dihydroisoquinolin-2(1H)-yl)-2-hydroxypropyl)-2-propyl-2,3,4,5-tetrahydro-1H-pyrido[4,3-b]indole-8-carboxamide] | – | – | – | –
– | – | – | 51 ± 4.2 | CC(C)N1CCc2[nH]c3ccc(C(=O)NC[C@H](O)CN4CCc5ccccc5C4)cc3c2C1 [Compound 25, (S)-N-(3-(3,4-dihydroisoquinolin-2(1H)-yl)-2-hydroxypropyl)-2-isopropyl-2,3,4,5-tetrahydro-1H-pyrido[4,3-b]indole-8-carboxamide] | – | – | – | –
– | – | – | 59 ± 1.4 | CC(C)CN1CCc2[nH]c3ccc(C(=O)NC[C@H](O)CN4CCc5ccccc5C4)cc3c2C1 [Compound 26, (S)-N-(3-(3,4-dihydroisoquinolin-2(1H)-yl)-2-hydroxypropyl)-2-isobutyl-2,3,4,5-tetrahydro-1H-pyrido[4,3-b]indole-8-carboxamide] | – | – | – | –
